Measured values reported in patent US20020055639A1, “Pyrazole derivatives as herbicides” (priority 1997, published 2002).

How the values were obtained:
Format in all cases: in vivo
Set-up in all cases: key: 1=total damage; 9=no action; Ratings of from 1 to 4 (especially from 1 to 3) indicate good to very good herbicidal action
[1] = tested on: Avena; test: Pre-emergence herbicidal action (Example B1); conditions: 2000 g a.i./ha, sprayed immediately after sowing, evaluated after 3 weeks, scale of nine ratings
Method: (§1) Monocotyledonous and dicotyledonous test plants are sown in standard soil in plastics pots. Immediately after sowing, the test compounds, each in the form of an aqueous suspension or emulsion prepared from a 25% emulsifiable concentrate (Example F1, c) in WO 97/34485, pages 9 and 10), are applied by spraying at a rate of application of 2000 g of active ingredient/ha (500 liters water/ha). The test plants are then grown in a greenhouse under optimum conditions. After 3 weeks' test duration, the test is evaluated in accordance with a scale of nine ratings (1=total damage, 9=no action). Ratings of from 1 to 4 (especially from 1 to 3) indicate good to very good herbicidal action.
(§2) Test plants: Avena, Setaria, Sinapis, Stellaria

[2] = tested on: Setaria; test: Pre-emergence herbicidal action (Example B1); conditions: 2000 g a.i./ha, sprayed immediately after sowing, evaluated after 3 weeks, scale of nine ratings
Method: as §1, §2

[3] = tested on: Sinapis; test: Pre-emergence herbicidal action (Example B1); conditions: 2000 g a.i./ha, sprayed immediately after sowing, evaluated after 3 weeks, scale of nine ratings
Method: as §1, §2

[4] = tested on: Stellaria; test: Pre-emergence herbicidal action (Example B1); conditions: 2000 g a.i./ha, sprayed immediately after sowing, evaluated after 3 weeks, scale of nine ratings
Method: as §1, §2

[5] = tested on: Avena; test: Post-emergence herbicidal action (Example B2); conditions: 2000 g a.i./ha, sprayed at 4- to 6-leaf stage, evaluated after approximately 18 days, scale of nine ratings
Method: (§3) Monocotyledonous and dicotyledonous test plants are grown in a greenhouse in plastics pots containing standard soil and at the 4- to 6-leaf stage are sprayed with an aqueous suspension or emulsion of the test substances of formula I, prepared from a 25% emulsifiable concentrate (Example F1, c) in WO 97/34485, pages 9 and 10), at a rate of application corresponding to 2000 g of active ingredient/ha (500 liters water/ha). The test plants are then grown on in the greenhouse under optimum conditions. After approximately 18 days' test duration, the test is evaluated in accordance with a scale of nine ratings (1=total damage, 9=no action). Ratings of from 1 to 4 (especially from 1 to 3) indicate good to very good herbicidal action.
as §2

[6] = tested on: Setaria; test: Post-emergence herbicidal action (Example B2); conditions: 2000 g a.i./ha, sprayed at 4- to 6-leaf stage, evaluated after approximately 18 days, scale of nine ratings
Method: as §3, §2

[7] = tested on: Sinapis; test: Post-emergence herbicidal action (Example B2); conditions: 2000 g a.i./ha, sprayed at 4- to 6-leaf stage, evaluated after approximately 18 days, scale of nine ratings
Method: as §3, §2

[8] = tested on: Stellaria; test: Post-emergence herbicidal action (Example B2); conditions: 2000 g a.i./ha, sprayed at 4- to 6-leaf stage, evaluated after approximately 18 days, scale of nine ratings
Method: as §3, §2

| SMILES | Pre-emergence action: Avena (rating) [1] | Pre-emergence action: Setaria (rating) [2] | Pre-emergence action: Sinapis (rating) [3] | Pre-emergence action: Stellaria (rating) [4] | Post-emergence action: Avena (rating) [5] | Post-emergence action: Setaria (rating) [6] | Post-emergence action: Sinapis (rating) [7] | Post-emergence action: Stellaria (rating) [8] |
| --- | --- | --- | --- | --- | --- | --- | --- | --- |
| C#CCn1c(-c2nn(C)c(OC(F)F)c2Cl)c(F)cc(Cl)c1=O [Example 1.100] | 1 | 1 | 1 | 1 | 1 | 1 | 1 | 1 |
| Cn1nc(-c2c(F)cc(Cl)c(=O)n2C)c(Cl)c1C(F)(F)F [Example 9.002] | 1 | 3 | 1 | 1 | 1 | 3 | 1 | 1 |
| C#CCn1c(-c2nn(C)c(S(C)(=O)=O)c2C)c(F)cc(Cl)c1=O [Example 28.100] | 1 | 1 | 1 | 1 | 1 | 1 | 1 | 1 |
| CCS(=O)(=O)CCn1c(-c2nn(C)c(OC(F)F)c2Cl)c(F)cc(Cl)c1=O [Example 1.168] | 1 | 1 | 1 | 1 | 1 | 1 | 1 | 1 |
| Cn1nc(-c2c(F)cc(Cl)c(=O)n2Cc2ccccc2)c(Cl)c1OC(F)F [Example 1.111] | 2 | 1 | 1 | 1 | 2 | 1 | 1 | 2 |
